Consider 4 compounds from ChEMBL document CHEMBL1938230, “6-Position optimization of tricyclic 4-quinolone-based inhibitors of glycogen synthase kinase-3β: discovery of nitrile derivatives with picomolar potency” (Bioorg Med Chem Lett, 2012).

Some results are limits rather than exact numbers.

The target of assay [1] is Glycogen synthase kinase-3 beta (Homo sapiens, UniProt P49841). Put plainly: Inhibition of GSK3-beta.
Assay [2] addresses c-Jun N-terminal kinase, JNK (Homo sapiens) (UniProt P45983+P53779+P45984). Put plainly: Inhibition of human JNK1/JNK2/JNK3 in HL-60 cells lysate assessed as reduction of labeling of acyl-phosphate ATP probe at 100 nM. The format is cell-free.
Assay [3] has as its target T1, Receptor-interacting serine/threonine-protein kinase 1 (Homo sapiens) (UniProt Q13546).
T1 sequence (whole entry): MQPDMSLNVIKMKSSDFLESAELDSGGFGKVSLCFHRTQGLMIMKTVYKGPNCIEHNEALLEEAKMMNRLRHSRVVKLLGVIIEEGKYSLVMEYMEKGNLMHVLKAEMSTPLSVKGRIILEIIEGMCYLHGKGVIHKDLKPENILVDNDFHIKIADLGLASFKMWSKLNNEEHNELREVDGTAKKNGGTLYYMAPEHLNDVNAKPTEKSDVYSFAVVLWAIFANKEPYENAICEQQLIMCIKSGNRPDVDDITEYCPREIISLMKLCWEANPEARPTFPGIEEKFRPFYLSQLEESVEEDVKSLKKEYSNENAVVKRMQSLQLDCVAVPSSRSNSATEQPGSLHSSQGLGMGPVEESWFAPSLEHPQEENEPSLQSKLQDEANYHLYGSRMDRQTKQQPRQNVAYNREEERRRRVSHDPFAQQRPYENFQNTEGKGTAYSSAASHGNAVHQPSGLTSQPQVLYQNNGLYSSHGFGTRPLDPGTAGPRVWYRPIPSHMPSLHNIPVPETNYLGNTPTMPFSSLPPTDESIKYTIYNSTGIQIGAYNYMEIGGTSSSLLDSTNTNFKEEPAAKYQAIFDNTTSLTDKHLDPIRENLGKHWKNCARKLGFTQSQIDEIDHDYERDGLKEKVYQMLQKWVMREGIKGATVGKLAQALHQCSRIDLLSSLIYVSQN
Put plainly: Inhibition of human RIPK1 in HL-60 cells lysate assessed as reduction of labeling of acyl-phosphate ATP probe at 100 nM. It is filed as cell-free.

Assay [4] has as its target Serine/threonine-protein kinase 24 (Homo sapiens) (UniProt Q9Y6E0). Put plainly: Inhibition of human MST3 in HL-60 cells lysate assessed as reduction of labeling of acyl-phosphate ATP probe at 100 nM. It is filed as cell-free.
The target in assay [5] is Mitogen-activated protein kinase kinase kinase 20 (Homo sapiens) (UniProt Q9NYL2). Put plainly: Inhibition of human ZAK in HL-60 cells lysate assessed as reduction of labeling of acyl-phosphate ATP probe at 100 nM. The format is cell-free.
In assay [6] the target is Leucine-rich repeat serine/threonine-protein kinase 2 (Homo sapiens) (UniProt Q5S007). Put plainly: Inhibition of human LRRK2 in HL-60 cells lysate assessed as reduction of labeling of acyl-phosphate ATP probe at 100 nM. It is filed as cell-free.
Chain of Leucine-rich repeat serine/threonine-protein kinase 2 (Homo sapiens) (Q5S007 whole entry): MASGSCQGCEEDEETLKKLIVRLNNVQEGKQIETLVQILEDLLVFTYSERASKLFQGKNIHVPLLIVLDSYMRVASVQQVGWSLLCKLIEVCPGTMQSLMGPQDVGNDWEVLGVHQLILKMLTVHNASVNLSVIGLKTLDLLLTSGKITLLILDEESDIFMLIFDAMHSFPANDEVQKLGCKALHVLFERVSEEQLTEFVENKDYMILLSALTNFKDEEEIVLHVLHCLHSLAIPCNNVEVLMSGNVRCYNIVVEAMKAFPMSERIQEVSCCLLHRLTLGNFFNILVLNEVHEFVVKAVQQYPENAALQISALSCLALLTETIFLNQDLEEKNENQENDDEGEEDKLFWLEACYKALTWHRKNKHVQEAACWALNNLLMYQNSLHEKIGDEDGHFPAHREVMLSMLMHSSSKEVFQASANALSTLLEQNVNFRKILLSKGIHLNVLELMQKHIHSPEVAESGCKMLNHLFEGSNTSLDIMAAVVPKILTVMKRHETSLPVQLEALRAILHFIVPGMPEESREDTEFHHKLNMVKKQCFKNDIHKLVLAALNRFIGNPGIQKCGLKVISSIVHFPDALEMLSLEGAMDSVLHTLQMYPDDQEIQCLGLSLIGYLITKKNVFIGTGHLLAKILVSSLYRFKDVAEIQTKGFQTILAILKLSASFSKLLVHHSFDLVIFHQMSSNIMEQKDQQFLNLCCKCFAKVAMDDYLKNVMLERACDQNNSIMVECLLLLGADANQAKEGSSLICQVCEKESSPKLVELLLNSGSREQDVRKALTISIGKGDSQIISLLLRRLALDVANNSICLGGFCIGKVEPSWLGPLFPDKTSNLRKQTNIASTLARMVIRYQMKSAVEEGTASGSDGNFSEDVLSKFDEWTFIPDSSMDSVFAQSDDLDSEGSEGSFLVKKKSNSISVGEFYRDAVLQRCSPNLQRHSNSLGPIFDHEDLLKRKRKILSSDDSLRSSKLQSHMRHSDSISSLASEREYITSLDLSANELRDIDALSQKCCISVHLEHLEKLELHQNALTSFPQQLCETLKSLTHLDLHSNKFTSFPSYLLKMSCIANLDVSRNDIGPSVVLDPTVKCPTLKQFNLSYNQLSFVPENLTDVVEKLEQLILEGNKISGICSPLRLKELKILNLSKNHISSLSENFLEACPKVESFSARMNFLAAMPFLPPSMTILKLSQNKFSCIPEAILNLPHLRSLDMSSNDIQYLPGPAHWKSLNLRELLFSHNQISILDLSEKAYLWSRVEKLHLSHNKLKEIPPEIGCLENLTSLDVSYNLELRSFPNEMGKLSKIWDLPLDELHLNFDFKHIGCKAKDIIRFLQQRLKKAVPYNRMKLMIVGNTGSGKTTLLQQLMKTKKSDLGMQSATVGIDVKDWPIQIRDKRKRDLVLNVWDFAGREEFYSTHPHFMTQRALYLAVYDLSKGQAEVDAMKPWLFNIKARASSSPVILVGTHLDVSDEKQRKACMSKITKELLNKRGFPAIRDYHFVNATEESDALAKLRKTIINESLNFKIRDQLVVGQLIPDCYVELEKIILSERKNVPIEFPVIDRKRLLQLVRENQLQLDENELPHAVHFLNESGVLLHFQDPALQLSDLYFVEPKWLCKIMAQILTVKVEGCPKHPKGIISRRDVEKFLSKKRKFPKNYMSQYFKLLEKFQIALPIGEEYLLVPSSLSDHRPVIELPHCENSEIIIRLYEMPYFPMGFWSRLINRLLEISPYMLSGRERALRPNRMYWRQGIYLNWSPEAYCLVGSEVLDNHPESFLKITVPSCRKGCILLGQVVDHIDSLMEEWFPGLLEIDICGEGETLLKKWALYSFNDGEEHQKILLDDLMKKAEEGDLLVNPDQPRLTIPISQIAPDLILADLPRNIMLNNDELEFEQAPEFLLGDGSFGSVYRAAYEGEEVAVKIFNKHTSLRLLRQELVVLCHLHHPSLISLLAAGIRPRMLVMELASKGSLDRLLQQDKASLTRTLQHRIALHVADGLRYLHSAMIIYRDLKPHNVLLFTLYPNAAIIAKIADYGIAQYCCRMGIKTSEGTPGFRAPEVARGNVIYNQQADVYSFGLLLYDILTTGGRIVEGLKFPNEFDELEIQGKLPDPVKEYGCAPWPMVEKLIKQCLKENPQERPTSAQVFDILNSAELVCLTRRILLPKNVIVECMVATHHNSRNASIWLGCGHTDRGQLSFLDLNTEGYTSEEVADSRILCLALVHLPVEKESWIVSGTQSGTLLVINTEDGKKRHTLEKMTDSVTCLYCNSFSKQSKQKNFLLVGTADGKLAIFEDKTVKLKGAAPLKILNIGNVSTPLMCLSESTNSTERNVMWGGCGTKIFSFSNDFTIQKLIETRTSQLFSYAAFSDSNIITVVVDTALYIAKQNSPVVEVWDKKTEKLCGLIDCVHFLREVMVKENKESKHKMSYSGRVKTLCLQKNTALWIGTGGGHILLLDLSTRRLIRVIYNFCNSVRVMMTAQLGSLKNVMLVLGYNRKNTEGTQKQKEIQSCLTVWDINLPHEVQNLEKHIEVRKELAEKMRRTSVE
In assay [7] the target is Dual specificity tyrosine-phosphorylation-regulated kinase 1B (Homo sapiens) (UniProt Q9Y463). Put plainly: Inhibition of human DYRK1B in HL-60 cells lysate assessed as reduction of labeling of acyl-phosphate ATP probe at 100 nM. It is filed as cell-free.
Chain of Dual specificity tyrosine-phosphorylation-regulated kinase 1B (Homo sapiens) (Q9Y463 whole entry, looked up): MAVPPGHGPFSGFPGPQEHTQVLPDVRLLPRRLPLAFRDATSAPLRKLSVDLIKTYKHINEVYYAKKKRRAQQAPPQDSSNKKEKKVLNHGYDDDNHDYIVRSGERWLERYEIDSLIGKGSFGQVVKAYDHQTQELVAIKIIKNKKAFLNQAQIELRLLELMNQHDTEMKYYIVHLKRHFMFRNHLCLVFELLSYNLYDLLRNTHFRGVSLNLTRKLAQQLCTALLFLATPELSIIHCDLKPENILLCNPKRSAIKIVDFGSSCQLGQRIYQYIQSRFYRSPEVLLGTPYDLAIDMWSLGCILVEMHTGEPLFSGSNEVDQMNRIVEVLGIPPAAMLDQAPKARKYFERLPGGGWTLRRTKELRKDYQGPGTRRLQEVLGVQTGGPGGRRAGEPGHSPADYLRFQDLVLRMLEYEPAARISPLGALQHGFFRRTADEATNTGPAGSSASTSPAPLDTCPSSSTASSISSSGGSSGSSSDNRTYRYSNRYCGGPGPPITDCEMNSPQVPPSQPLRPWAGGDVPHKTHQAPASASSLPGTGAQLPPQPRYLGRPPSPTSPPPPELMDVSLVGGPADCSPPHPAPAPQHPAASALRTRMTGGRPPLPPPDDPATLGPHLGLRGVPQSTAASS
For the next assay, the system named is HL-60. Put plainly: Inhibition of human TAO1/TAO3 in HL-60 cells lysate assessed as reduction of labeling of acyl-phosphate ATP probe at 100 nM.
In assay [8] the target is Cyclin-dependent kinase 6 (Homo sapiens) (UniProt Q00534). Put plainly: Inhibition of human CDK6 in HL-60 cells lysate assessed as reduction of labeling of acyl-phosphate ATP probe at 100 nM. It is filed as cell-free.
Chain of Cyclin-dependent kinase 6 (Homo sapiens) (Q00534 whole entry): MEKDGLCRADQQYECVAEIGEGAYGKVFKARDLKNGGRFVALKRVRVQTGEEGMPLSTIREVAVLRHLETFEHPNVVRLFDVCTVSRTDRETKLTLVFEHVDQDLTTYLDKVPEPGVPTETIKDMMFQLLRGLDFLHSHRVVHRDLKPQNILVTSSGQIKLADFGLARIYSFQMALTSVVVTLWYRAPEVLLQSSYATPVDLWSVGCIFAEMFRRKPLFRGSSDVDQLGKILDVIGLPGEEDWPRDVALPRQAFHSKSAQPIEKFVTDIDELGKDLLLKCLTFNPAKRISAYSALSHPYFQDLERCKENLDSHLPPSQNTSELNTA
Assay [9] deals with Tyrosine-protein kinase Fgr (Homo sapiens) (UniProt P09769). Put plainly: Inhibition of human FGR in HL-60 cells lysate assessed as reduction of labeling of acyl-phosphate ATP probe at 100 nM. It is filed as cell-free.
Chain of Tyrosine-protein kinase Fgr (Homo sapiens) (P09769 2-529 limits assumed): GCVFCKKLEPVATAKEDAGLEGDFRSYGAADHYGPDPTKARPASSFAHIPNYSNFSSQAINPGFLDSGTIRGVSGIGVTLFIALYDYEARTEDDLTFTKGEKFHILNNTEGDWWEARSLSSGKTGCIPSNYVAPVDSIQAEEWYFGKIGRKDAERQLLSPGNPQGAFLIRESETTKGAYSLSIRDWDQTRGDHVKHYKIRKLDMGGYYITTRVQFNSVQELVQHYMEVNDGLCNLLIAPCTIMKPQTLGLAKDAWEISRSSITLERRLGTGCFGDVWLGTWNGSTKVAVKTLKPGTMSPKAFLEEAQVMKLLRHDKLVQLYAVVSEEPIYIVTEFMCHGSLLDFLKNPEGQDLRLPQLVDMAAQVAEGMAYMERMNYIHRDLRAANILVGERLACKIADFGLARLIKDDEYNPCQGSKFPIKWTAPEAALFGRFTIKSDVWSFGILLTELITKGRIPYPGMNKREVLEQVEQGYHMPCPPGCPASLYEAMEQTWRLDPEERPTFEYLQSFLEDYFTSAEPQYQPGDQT
The target of assay [10] is 1-phosphatidylinositol 3-phosphate 5-kinase (Homo sapiens) (UniProt Q9Y2I7). Put plainly: Inhibition of human PIP5K3 in HL-60 cells lysate assessed as reduction of labeling of acyl-phosphate ATP probe at 100 nM. It is filed as cell-free.
Assay [11] has as its target T2, Inhibitor of nuclear factor kappa-B kinase subunit alpha (Homo sapiens) (UniProt O15111).
T2 sequence (whole entry): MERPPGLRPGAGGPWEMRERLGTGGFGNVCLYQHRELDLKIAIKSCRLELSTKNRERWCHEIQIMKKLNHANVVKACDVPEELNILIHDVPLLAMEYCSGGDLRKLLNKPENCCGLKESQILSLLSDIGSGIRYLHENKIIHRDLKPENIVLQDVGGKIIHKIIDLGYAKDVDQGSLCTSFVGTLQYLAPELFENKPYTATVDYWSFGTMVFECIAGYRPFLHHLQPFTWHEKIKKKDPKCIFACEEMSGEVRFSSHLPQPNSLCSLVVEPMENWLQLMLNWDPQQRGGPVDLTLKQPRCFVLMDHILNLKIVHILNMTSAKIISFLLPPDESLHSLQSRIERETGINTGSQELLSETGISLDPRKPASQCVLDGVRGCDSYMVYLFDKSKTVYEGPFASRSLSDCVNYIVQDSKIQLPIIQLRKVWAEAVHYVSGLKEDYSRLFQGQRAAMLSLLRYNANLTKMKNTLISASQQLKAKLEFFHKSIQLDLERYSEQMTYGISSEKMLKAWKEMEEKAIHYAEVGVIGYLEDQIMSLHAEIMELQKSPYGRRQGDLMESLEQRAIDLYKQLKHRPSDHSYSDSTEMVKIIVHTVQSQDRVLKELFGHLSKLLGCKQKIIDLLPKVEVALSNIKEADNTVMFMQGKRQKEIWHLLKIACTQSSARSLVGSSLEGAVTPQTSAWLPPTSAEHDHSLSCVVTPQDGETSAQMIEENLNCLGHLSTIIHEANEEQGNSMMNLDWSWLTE
Put plainly: Inhibition of human IKKalpha in HL-60 cells lysate assessed as reduction of labeling of acyl-phosphate ATP probe at 100 nM. The format is cell-free.

The target in assay [12] is Phosphatidylinositol 3-kinase catalytic subunit type 3 (Homo sapiens) (UniProt Q8NEB9). Put plainly: Inhibition of human PIK3C3 in HL-60 cells lysate assessed as reduction of labeling of acyl-phosphate ATP probe at 100 nM. The format is cell-free.
The target of assay [13] is T3, Phosphatidylinositol 5-phosphate 4-kinase type-2 gamma (Homo sapiens) (UniProt Q8TBX8).
T3 sequence (whole entry): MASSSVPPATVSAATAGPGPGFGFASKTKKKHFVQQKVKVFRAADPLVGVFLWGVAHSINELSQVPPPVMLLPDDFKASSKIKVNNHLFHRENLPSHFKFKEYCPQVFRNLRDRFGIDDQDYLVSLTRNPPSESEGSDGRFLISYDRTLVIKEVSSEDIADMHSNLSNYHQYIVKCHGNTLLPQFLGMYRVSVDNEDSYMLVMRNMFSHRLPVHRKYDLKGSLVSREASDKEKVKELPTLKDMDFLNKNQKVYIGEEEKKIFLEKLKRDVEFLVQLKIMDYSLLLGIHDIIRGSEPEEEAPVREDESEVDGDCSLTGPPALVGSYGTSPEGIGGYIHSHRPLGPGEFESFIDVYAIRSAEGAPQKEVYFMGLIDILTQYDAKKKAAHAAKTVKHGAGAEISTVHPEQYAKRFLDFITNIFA
Put plainly: Inhibition of human PIP4K2C in HL-60 cells lysate assessed as reduction of labeling of acyl-phosphate ATP probe at 100 nM. The format is cell-free.

Chain of Glycogen synthase kinase-3 beta (P49841 whole entry): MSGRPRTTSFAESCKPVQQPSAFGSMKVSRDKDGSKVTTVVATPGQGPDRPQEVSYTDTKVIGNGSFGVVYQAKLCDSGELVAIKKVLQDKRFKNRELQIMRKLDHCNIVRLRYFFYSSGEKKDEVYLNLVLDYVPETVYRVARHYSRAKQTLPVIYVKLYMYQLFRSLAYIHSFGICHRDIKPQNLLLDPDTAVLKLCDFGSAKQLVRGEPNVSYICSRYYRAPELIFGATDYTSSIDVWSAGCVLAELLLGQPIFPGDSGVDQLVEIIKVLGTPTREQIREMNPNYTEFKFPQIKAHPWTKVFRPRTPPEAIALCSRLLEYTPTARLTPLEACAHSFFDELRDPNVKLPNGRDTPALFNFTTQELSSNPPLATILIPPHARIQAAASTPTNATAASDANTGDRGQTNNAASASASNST
Chain of Serine/threonine-protein kinase 24 (Homo sapiens) (Q9Y6E0 whole entry, looked up): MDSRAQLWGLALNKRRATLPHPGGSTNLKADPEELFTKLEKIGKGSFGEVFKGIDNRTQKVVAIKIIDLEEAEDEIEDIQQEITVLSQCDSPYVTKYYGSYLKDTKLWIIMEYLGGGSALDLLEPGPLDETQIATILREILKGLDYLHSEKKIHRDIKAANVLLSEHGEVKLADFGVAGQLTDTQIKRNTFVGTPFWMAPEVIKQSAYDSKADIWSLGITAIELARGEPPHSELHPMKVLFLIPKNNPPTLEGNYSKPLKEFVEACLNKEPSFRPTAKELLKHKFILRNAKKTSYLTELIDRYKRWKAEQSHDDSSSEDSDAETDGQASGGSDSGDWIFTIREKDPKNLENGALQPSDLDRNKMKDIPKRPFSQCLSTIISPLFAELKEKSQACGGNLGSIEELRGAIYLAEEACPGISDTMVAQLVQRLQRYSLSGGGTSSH

Regarding `C[C@H]1COc2c(NCCCn3cccn3)c(F)c(N)c3c(=O)c(C#N)cn1c23`, inhibition in assay [1] was half-maximal at 0.86 nM (IC50). For the same compound, the inhibition in assay [2], in assay [3], in assay [4], in [5], in assay [6] and in assay [7] was under 35% each time. Besides, the inhibition in assay [8], in assay [9], in [10], in assay [11], in assay [12] and in [13] was under 35% throughout. Besides, in the assay with HL-60, the inhibition – broadly, the percentage by which the read-out fell short of the control – at 0.1 µM was under 35%.

Consider `C[C@H]1COc2c(NCCCc3ccccn3)c(F)c(N)c3c(=O)c(C(=O)O)cn1c23`, for which inhibition in [1] was half-maximal at 10 nM (IC50). For the same compound, the inhibition in [2], in [3], in assay [4], in [5], in assay [6] and in assay [7] was under 35% each time. The inhibition in [8], in assay [9], in [10], in assay [11], in [12] and in assay [13] was under 35% in each case. Also, the inhibition at 0.1 µM in the assay on HL-60 was under 35%.

As to `C[C@H]1COc2c(NCCCn3cccn3)c(F)c(N)c3c(=O)c(C(=O)O)cn1c23`, in [1], inhibition was half-maximal at 16 nM (IC50). Also, the inhibition in [2], in assay [3], in [4], in assay [5], in assay [6] and in assay [7] was under 35% each time. The inhibition in assay [8], in assay [9], in assay [10], in assay [11], in [12] and in assay [13] was under 35% each time. The inhibition at 0.1 µM in the assay with HL-60 is under 35%.

For `C[C@H]1COc2c(NCCCc3ccccn3)c(F)c(N)c3c(=O)c(C#N)cn1c23`, in assay [1], half-maximal inhibition (IC50) was put at 0.6 nM. The inhibition in [2], in assay [3], in assay [4], in assay [5], in assay [6] and in assay [7] was under 35% each time. Moreover, the inhibition in assay [8], in assay [9], in assay [10], in [11], in [12] and in [13] was under 35% each time. Further, the inhibition at 0.1 µM with HL-60 is under 35%.
